From patent US20250161212A1, “LIQUID PHARMACEUTICAL FORMULATION OF OMEPRAZOLE OR ESOMEPRAZOLE” (ALKALOID AD SKOPJE, priority 2022, published 2025)

Assay: Stability study of esomeprazole sodium dissolved in DMSO stored at 25° C. (impurities)
Format: physicochemical
Experimental: Example 9—Stability Study Stability results for esomeprazole sodium dissolved in DMSO stored at 25° C.: • Key: • Imp D: omeprazole impurity D: [drawing 3] • RRT: Relative retention time.

[1] = 1.5 months, second table, Imp-s > 0.02%
[2] = 3 months, second table, Imp-s > 0.02%
[3] = 5 months, second table, Imp-s > 0.02%
[4] = 9 months, second table, Imp-s > 0.02%
[5] = 13 months, second table, Imp-s > 0.02%
[6] = Initial, second table, Imp-s > 0.02%
[7] = in DMSO, 25° C., 1.5 months, first table
[8] = in DMSO, 25° C., 5 months, first table
[9] = in DMSO, 25° C., Initial, first table

- Total impurities (1.5 months, second table): 0.14%
- Imp D (omeprazole impurity D) [1]: 0.03%
- impurity RRT 1.23 [1]: 0.03%
- Total impurities (3 months, second table): 0.17%
- Imp D (omeprazole impurity D) [2]: 0.03%
- impurity RRT 1.23 [2]: 0.03%
- Total impurities (5 months, second table): 0.16%
- Imp D (omeprazole impurity D) [3]: 0.03%
- impurity RRT 1.17 [3]: 0.03%
- Total impurities (9 months, second table): 0.25%
- Imp D (omeprazole impurity D) [4]: 0.03%
- impurity RRT 0.53 [4]: 0.03%
- impurity RRT 1.23 [4]: 0.03%
- impurity RRT 1.31 [4]: 0.03%
- Total impurities (13 months, second table): 0.36%
- Imp D (omeprazole impurity D) [5]: 0.03%
- impurity RRT 0.54 [5]: 0.04%
- impurity RRT 0.90 [5]: 0.04%
- impurity RRT 1.23 [5]: 0.03%
- impurity RRT 1.31 [5]: 0.04%
- impurity RRT 1.32 [5]: 0.03%
- Total impurities (Initial, second table): 0.12%
- Imp D (omeprazole impurity D) [6]: 0.03%
- impurity RRT 1.23 [6]: 0.03%
- Imp D (omeprazole impurity D) [7]: Imp D = 0.03%
- Total impurities [7]: Total = 0.14%
- impurity RRT 1.23 [7]: RRT 1.23 = 0.03%
- Imp D (omeprazole impurity D) [8]: Imp D = 0.03%
- Total impurities [8]: Total = 0.15%
- impurity RRT 0.57 [8]: RRT 0.57 = 0.02%
- impurity RRT 1.14 [8]: RRT 1.14 = 0.02%
- impurity RRT 1.17 [8]: RRT 1.17 = 0.03%
- impurity RRT 1.23 [8]: RRT 1.23 = 0.02%
- Imp D (omeprazole impurity D) [9]: Imp D = 0.03%
- Total impurities [9]: Total = 0.12%
- impurity RRT 1.19 [9]: RRT 1.19 = 0.02%
- impurity RRT 1.23 [9]: RRT 1.23 = 0.03%
Structure (SMILES): COc1ccc2nc([S@@+]([O-])Cc3ncc(C)c(OC)c3C)[nH]c2c1 (single isomer, unassigned) [esomeprazole sodium]
